# Experimental data reported in patent publication EP0038569A2, “Deazapurine nucleosides, formulations and preparation thereof” (THE WELLCOME FOUNDATION LIMITED, priority 1980, dated 1981).
# Where two headings read alike, the source gives them in different places.
# What was measured:
# [1] = system: 51Cr-labelled EL4 cells; assay: Assay of lymphocyte mediated cytolysis (LMC) in vitro; assay type: cell-based; conditions: for % lysis Reduction: in presence of ADA inhibitor EHNA 7.9 µM
# Protocol: The test compounds were assayed in vitro by the method described in Science, (N.Y.), 187, 957 (1975). The order of addition of reagents was (1) cytotoxic lymphocytes; (2) tests compound dissolved in pyrogen-free saline; (3) ^51Cr-labelled EL4 cells. In those experiments where an adenosine deaminase (ADA) inhibitor was required erthro-9-(2-hydroxy-3-nonyl)adenine (EHNA) was added before step (2) to give a final concentration of 7.9 µM.
# [2] = Carrageenan Pleurisy Assay (CPA), acute anti-inflammatory activity; assay type: in vivo; conditions: po, read-out: ED50, dose required to reduce the 3 hour exudate volume by 50%
# Source text: Following the procedure described by Vinegar et al., in Proc. Soc. […] There were 5 animals in each drug-treated group and the control group.
# [3] = system: chromium-labelled heterologous (sheep) erthrocytes target cells coated with mouse anti-sheep erythrocyte serum; assay: Antibody-Dependent Cellular Cytotoxicity assay in vitro; assay type: cell-based
# Protocol: The title compound was tested in vitro in Antibody-Dependent Cellular Cytotoxicity assay [Perlmann, P. and Holm, G., Adv. Immunol., 11, 117, (1969)]. Mouse spleen cells from non-immunized animals served as the source of effector cells, assayed with chromium-labelled heterologous (sheep) erthrocytes target cells coated with mouse anti-sheep erythrocyte serum. The final concentration of the anti-serum in the incubation mixture was 1:66, the ratio of effector to target cells 25:1.
# [4] = Toxicity in animal models: liver damage, therapeutic index
# [5] = Duration of action and half life; conditions: in vivo
# [6] = Antipyretic and analgesic activity; conditions: in vivo
# [7] = system: lipoxgenase or cyclooxygenase pathway; assay: Inhibition of prostaglandin metabolism in vitro; assay type: biochemical
# [8] = Solubility in water; assay type: physicochemical
# [9] = Mus musculus, EL4, read-out: % lysis Reduction
structure (smiles),measurement,setting,value
Nc1nc(Cl)nc2c1ncn2[C@@H]1O[C@H](CO)[C@@H](O)[C@H]1O [2-Chloro-adenosine],inhibition at 4.7 µM,[1]; [9],62.2%
same,inhibition at 9.4 µM,[1]; [9],64.4%
Nc1nc(F)nc2c1ncn2[C@@H]1O[C@H](CO)[C@@H](O)[C@H]1O [2-Fluoro-adenosine],inhibition at 1 µM,[1]; [9],48.9%
same,inhibition at 2 µM,[1]; [9],60%
"Nc1nccc2c1ncn2[C@H]1C[C@H](O)[C@@H](CO)O1 [4-amino-1-(2-deoxy-β-D-ribofuranosyl)-1H-imidazo-[4,5-c]-pyridine]",ED50,"[2]; 3 hr. vol. p.o., mg/kg of body weight",12 mg/kg
same,inhibition at 100 µM,"[3]; 100 µM, 4 hours of incubation at 37 °C, effector to target cells 25:1, read-out: inhibition of target cell-specific chromium release",83.2%
same,inhibition at 3.1 µM,[3]; 4 h,31.2%
same,inhibition at 6.2 µM,[3]; 4 h,42.1%
same,inhibition at 12.5 µM,[3]; 4 h,55.9%
same,inhibition at 25 µM,"[3]; 4 h, Dose 25.0 μM",60.2%
same,IC50,[3]; dose-response study,6.2 to 12.5 µM
same,liver damage,[4]; in the animal models used,does not cause liver damage
same,therapeutic index,[4]; in vivo,high
same,duration of action,[5],about 15 hours
same,half life,[5],short
same,analgesic activity per se,[6],no analgesic activity
same,antipyretic activity,[6],not antipyretic
same,inhibition of prostaglandin metabolism,[7],does not inhibit
same,inhibition at 18.8 µM,"[1]; Mus musculus, EL4, Conc. 18.8 µM, read-out: % lysis Reduction",53%
same,inhibition at 37.5 µM,"[1]; Mus musculus, EL4, Conc. 37.5 µM, read-out: % lysis Reduction",73%
same,inhibition of lymphocyte mediated cytolysis,[1]; summary statement,potent inhibitor
same,solubility in water,[8],highly soluble in water
"Nc1nccc2c1ncn2[C@@H]1O[C@H](CO)[C@@H](O)[C@H]1O [(4-amino-1-β-D-ribofur-anosyl-1H-imidazo-[4,5-c]-pyridine, reference compound]",inhibition at 3.1 µM,[3]; 4 h,52.3%
same,inhibition at 6.2 µM,[3]; 4 h,64.8%
same,inhibition at 12.5 µM,[3]; 4 h,66.4%
Nc1ncnc2c1ncn2[C@@H]1O[C@H](CO)[C@@H](O)[C@H]1O [Adenosine],% lysis Reduction,[1]; Conc. 9.4 µM,59%
same,% lysis Reduction,[1]; Conc. 18.8 µM,59%
CC(=O)Oc1ccccc1C(=O)O [Aspirin],ED50,[2]; 3 h,28 ± 3.2 mg/kg
C[C@]12CCC(=O)C=C1CC[C@@H]1[C@@H]2[C@@H](O)C[C@@]2(C)[C@H]1CC[C@]2(O)C(=O)CO [Hydrocortisone],ED50,[2]; 3 h,14 ± 10.2 mg/kg
C[C@]12C=CC(=O)C=C1CC[C@@H]1[C@@H]2[C@@H](O)C[C@@]2(C)[C@H]1CC[C@]2(O)C(=O)CO [Prednisolone],ED50,[2]; 3 h,3 ± 0.5 mg/kg
